We go through 4 compounds from patent US20080045547A1, “Salts And Co-Crystals of Pyrazolopyrimidine Compounds, Compositions Thereof And Methods For Their Production And Use” (priority 2006, published 2008).

Series [1] is described as follows: Pharmacokinetics of indiplon after oral administration of free base or HBr co-crystal suspension. In kind it is in vivo, male beagle dogs. To be noted: male dogs; for AUC(0-t) / Cmax / Tmax: single oral dose 5 mg free base/kg, 0.5% methylcellulose suspension. On the procedure:
The purpose of this study was to determine the pharmacokinetics of indiplon following oral administration of the free base and the HBr co-crystal in a suspension to male beagle dogs.
The test compounds used in the study were the free base and […] of indiplon. The compounds were stored at approximately 2-8° C.
Five male purebred beagles were transferred to the study from a stock colony. Each animal was identified with an individually numbered ear tattoo. The animals were acclimated for 5 days. At the time of dose administration, animals were young adult/adult age. During acclimation and the test period, animals were individually housed in wire-mesh enclosures with coated rod-bottom floors. Animals were not comingled for at least 24 hours after each dose administration to allow monitoring of any test compound-related effects. Animals had access to non-certified Canine Diet #5L03 (PMI Feeds, Inc.) ad libitum, except as specified for dose administration.
The test compounds were prepared in 0.5% methylcellulose. The target concentrations of the free base and HBr salt were 1.0 and 1.34 mg/mL (equivalent to 1 mg of the free base), respectively. The liquid suspensions were administered via oral gavage. Prior to removing the gavage tube, the tube was flushed with approximately 5 mL of water.
Blood (approximately 2 mL) was collected from a jugular vein via syringe and needle and transferred into tubes containing K2EDTA anticoagulant predose and at 0.5, 1, 2, 3, 4, 6, 8, 12, and 24 hours postdose. Blood was maintained on wet ice, in chilled Kryoracks, or at approximately 5° C. prior to centrifugation to obtain plasma. Centrifugation began within 1 hour of collection. Plasma was placed on dry ice prior to storage at approximately −70° C. Plasma samples, remaining test compounds, and remaining dose formulations were shipped on dry ice to the analysis site and stored at approximately −70° C. before and after analysis. Samples were analyzed using an LC/MS/MS method. Plasma concentration-time data for each dog and formulation were analyzed using a noncompartmental model assumption with WinNonlin, version 4.1 (Pharsight Corporation, Mountain View, Calif.). All calculations were based on the nominal times as actual sample collection times departed minimally from the schedule times.

A short description of series [2]: Plasma pharmacokinetic comparison of zaleplon free base and HCl salt after single oral doses. The series is classed as in vivo. To be noted: male beagle dogs; for AUC(0-inf) / AUC(0-t) / Cmax / Tmax: male, beagle, dog, plasma, po.
Setting [3] is: Mean, N = 5, listed as HBr Salt Suspension.
The mark [4] stands for this setting: dog CUPBEG, listed as HBr Salt Suspension.
The mark [5] stands for this setting: dog CUVBAT, listed as HBr Salt Suspension.
Where [6] appears, read: dog CVRCVX, listed as HBr Salt Suspension.
Where [7] appears, read: dog CVSCCL, listed as HBr Salt Suspension.
[8] abbreviates: dog CTZBCG, listed as Free Base Suspension.
The mark [9] stands for this setting: dog CUPBEG, listed as Free Base Suspension.
Setting [10] is: dog CUVBAT, listed as Free Base Suspension.
The mark [11] stands for this setting: 2.5 mg HCl Salt/kg, single oral dose 2.5 mg HCl Salt/kg, Mean of 5 dogs.
The mark [12] stands for this setting: 2.5 mg HCl Salt/kg, single oral dose 2.5 mg HCl Salt/kg, dog CLT-2.
[13] abbreviates: 2.5 mg HCl Salt/kg, single oral dose 2.5 mg HCl Salt/kg, dog H0M004.
[14] abbreviates: 2.5 mg HCl Salt/kg, single oral dose 2.5 mg HCl Salt/kg, dog H1B108.
Setting [15] is: 2.5 mg HCl Salt/kg, single oral dose 2.5 mg HCl Salt/kg, dog TDR2.
Where [16] appears, read: 2.5 mg HCl Salt/kg, single oral dose 2.5 mg HCl Salt/kg, dog TKR-2.
Where [17] appears, read: 5 mg/kg, single oral dose 5.0 mg Free Base/kg, Mean of 5 dogs.
Setting [18] is: 5 mg/kg, single oral dose 5.0 mg Free Base/kg, dog CLT-2.
Setting [19] is: 5 mg/kg, single oral dose 5.0 mg Free Base/kg, dog H0M004.
Where [20] appears, read: 5 mg/kg, single oral dose 5.0 mg Free Base/kg, dog H1B108.
Where [21] appears, read: 5 mg/kg, single oral dose 5.0 mg Free Base/kg, dog TDR2.
The mark [22] stands for this setting: 5 mg/kg, single oral dose 5.0 mg Free Base/kg, dog TKR-2.

As for `CC(=O)N(C)c1cccc(-c2ccnc3c(C(=O)c4cccs4)cnn23)c1` [indiplon HBr, N-methyl-N-{3-[3-(thiophene-2-carbonyl)-pyrazolo[1,5-a]pyrimidin-7-yl]-phenyl}acetamide HBr cocrystal], the “Tmax compared to the free base” value in series [1] (oral 5 mg free base/kg) is on record as “not remarkably different”. In series [1] (oral 5 mg free base/kg), the “increase in the AUC versus free base” value amounted to 226.8%. In addition, the “increase in the maximum plasma concentrations achieved (Cmax) versus free base” value in series [1] (oral 5 mg free base/kg) came out at 69.7%. Besides, the “test animals with pharmaceutical profile superior to the corresponding free base” value in series [1] (oral 5 mg free base/kg, cross-over) is given as 5 out of 5. Moreover, the AUC(0-t) in series [1] (setting [3]) stood at 567 ng·h/mL; in series [1] (dog CTZBCG, listed as HBr Salt Suspension), 1130 ng·h/mL; in series [1] (setting [4]), 429 ng·h/mL; in series [1] (setting [5]), 291 ng·h/mL; in series [1] (setting [6]), 258 ng·h/mL; in series [1] (setting [7]), 725 ng·h/mL. The maximum concentration (Cmax) (usually the peak of the concentration-time curve) stood at 314 ng/mL in series [1] (setting [3]); 253 ng/mL in series [1] (setting [4]); 309 ng/mL in series [1] (setting [5]); 227 ng/mL in series [1] (setting [6]); 270 ng/mL in series [1] (setting [7]); 513 ng/mL in series [1] (male, beagle, dog, plasma, po, 5 mg/kg, dog CTZBCG, read-out: Cmax). For the same compound, the Tmax (in general, the time from dosing to the highest level) in series [1] (setting [3]) was determined as 48 min; in series [1] (setting [7]) it was 120 min; in series [1] (male, beagle, dog, plasma, po, 5 mg/kg, dog CTZBCG, read-out: Tmax), 30 min; in series [1] (male, beagle, dog, plasma, po, 5 mg/kg, dog CUPBEG, read-out: Tmax) it was 30 min.

For the compound `CC(=O)N(C)c1cccc(-c2ccnc3c(C(=O)c4cccs4)cnn23)c1` [Indiplon free base, N-methyl-N-{3-[3-(thiophene-2-carbonyl)-pyrazolo[1,5-a]pyrimidin-7-yl]-phenyl}acetamide, reference compound], the AUC(0-t) in series [1] (Mean, N = 5, listed as Free Base Suspension) was 250 ng·h/mL; in series [1] (setting [8]), 408 ng·h/mL; in series [1] (setting [9]), 160 ng·h/mL; in series [1] (setting [10]) it was 125 ng·h/mL; in series [1] (dog CVSCCL, listed as Free Base Suspension), 277 ng·h/mL; in series [1] (male, beagle, dog, plasma, po, 5 mg/kg, dog CVRCVX, read-out: AUC0-t) it was 279 ng·h/mL. Moreover, the highest concentration (Cmax) in series [1] (setting [8]) came to 266 ng/mL; in series [1] (setting [9]), 106 ng/mL; in series [1] (setting [10]), 101 ng/mL; in series [1] (male, beagle, dog, plasma, po, 5 mg/kg, Mean, N = 5, read-out: Cmax), 185 ng/mL; in series [1] (male, beagle, dog, plasma, po, 5 mg/kg, dog CVRCVX, read-out: Cmax), 212 ng/mL; in series [1] (male, beagle, dog, plasma, po, 5 mg/kg, dog CVSCCL, read-out: Cmax), 240 ng/mL. The time of peak concentration (Tmax) in series [1] (setting [9]) was 60 min; in series [1] (male, beagle, dog, plasma, po, 5 mg/kg, Mean, N = 5, read-out: Tmax) it was 36 min; in series [1] (male, beagle, dog, plasma, po, 5 mg/kg, dog CUVBAT, read-out: Tmax), 30 min; in series [1] (male, beagle, dog, plasma, po, 5 mg/kg, dog CVRCVX, read-out: Tmax), 30 min.

Regarding `CCN(C(C)=O)c1cccc(-c2ccnc3c(C#N)cnn23)c1.Cl` [zaleplon HCl, Zaleplon Hydrochloride], in series [2] (oral, calculated on a mg/kg dosing basis), the “Cmax compared with the free base” value is “essentially equivalent”. The total exposure AUC(0-inf) (commonly the area under the concentration-time curve extrapolated to infinity) in series [2] (setting [11]) is 2320 ng·h/mL; in series [2] (setting [12]), 1820 ng·h/mL; in series [2] (setting [13]), 2010 ng·h/mL; in series [2] (setting [14]), 1360 ng·h/mL; in series [2] (setting [15]), 2650 ng·h/mL; in series [2] (setting [16]), 3760 ng·h/mL. Further, the AUC(0-t) is 2310 ng·h/mL in series [2] (setting [11]); 1820 ng·h/mL in series [2] (setting [12]); 2010 ng·h/mL in series [2] (setting [13]); 1360 ng·h/mL in series [2] (setting [14]); 2650 ng·h/mL in series [2] (setting [15]); 3720 ng·h/mL in series [2] (setting [16]). For the same compound, the Cmax came out at 790 ng/mL in series [2] (setting [11]); 1010 ng/mL in series [2] (setting [12]); 642 ng/mL in series [2] (setting [13]); 587 ng/mL in series [2] (setting [14]); 820 ng/mL in series [2] (setting [15]); 896 ng/mL in series [2] (setting [16]). Also, the Tmax is 33 min in series [2] (setting [11]); 15 min in series [2] (setting [12]); 30 min in series [2] (setting [13]); 60 min in series [2] (setting [14]); 30 min in series [2] (setting [15]); 30 min in series [2] (setting [16]).

For the compound `CCN(C(C)=O)c1cccc(-c2ccnc3c(C#N)cnn23)c1` [zaleplon free base, N-[3-(3-cyanopyrazolo[1,5-a]pyrimidin-7-yl)phenyl]-N-ethylacetamide, reference compound], the Tmax worked out at 66 min in series [2] (5 mg Free Base/kg, single oral dose 5.0 mg Free Base/kg, Mean of 5 dogs); 60 min in series [2] (setting [18]); 60 min in series [2] (setting [19]); 120 min in series [2] (setting [20]); 30 min in series [2] (setting [21]); 60 min in series [2] (setting [22]). The AUC(0-inf) in series [2] (setting [17]) was determined as 6940 ng·h/mL; in series [2] (setting [18]), 6860 ng·h/mL; in series [2] (setting [19]) it was 7000 ng·h/mL; in series [2] (setting [20]), 3760 ng·h/mL; in series [2] (setting [21]), 2550 ng·h/mL; in series [2] (setting [22]), 14500 ng·h/mL. The AUC(0-t) was determined as 6700 ng·h/mL in series [2] (setting [17]); 6840 ng·h/mL in series [2] (setting [18]); 6930 ng·h/mL in series [2] (setting [19]); 3760 ng·h/mL in series [2] (setting [20]); 2550 ng·h/mL in series [2] (setting [21]); 13400 ng·h/mL in series [2] (setting [22]). Moreover, the maximum concentration (Cmax) in series [2] (setting [17]) amounted to 1590 ng/mL; in series [2] (setting [18]), 1850 ng/mL; in series [2] (setting [19]), 1460 ng/mL; in series [2] (setting [20]), 926 ng/mL; in series [2] (setting [21]), 1100 ng/mL; in series [2] (setting [22]), 2630 ng/mL.
